Earlier results in paper PMC11476552, “Synthesis and Preliminary Studies for In Vitro Biological Activity of Two New Water-Soluble Bis(thio)carbohydrazones and Their Copper(II) and Zinc(II) Complexes” (International Journal of Molecular Sciences, 2024).

Set-up: method as in PMID 29334758
Details: cited from earlier work

S=C(N/N=C1\CCCc2cccnc21)N1CCN(c2ccccn2)CC1 [COTI-2]
cytotoxic activity (in words): nanomolar cytotoxic activity

CN(C(=S)NN=C(c1ccccn1)c1ccccn1)C1CCCCC1 [DpC, di-2-pyridylketone 4-cyclohexyl-4-methyl-3-thiosemicarbazone]
cytotoxic activity (in words): nanomolar cytotoxic activity
